In general, pIC50 refers to the IC50 on a negative log10 scale, so that one unit is a factor of ten.

Consider one compound from PMC12909347, “Disconnect between in vitro and in vivo efficacy of the MPS1 inhibitor NTRC 0066-0 against glioblastoma” (Cellular Oncology, 2026).

In one series the test system is P-gp. In words: Brain penetration in Abcb1a/b-/- mice. The format is in vivo. The conditions noted are these: 1 h after 5 mg/kg i.v. The protocol:
The pharmacokinetics of NTRC 0066-0 were analyzed in wild-type (WT), Abcb1a/b^−/−, Abcg2^−/−, Abcb1a/b^−/−;Abcg2^−/− and Abcb1a/b^−/−;Abcg2^−/−;Abcc4^−/− FVB mice. All knockout mice strains have been developed at the Netherlands Cancer Institute. For i.v. administration, NTRC0066-0 was formulated in DMSO: Cremophor EL: saline (1:1:8 v/v) and injected at a dose of 5 mg/kg. For i.p and oral administration, NTRC0066-0 was administered at 5, 10 or 20 mg/kg as indicated. Serial blood sampling was done by tail vein bleeding at specific time points. At terminal time points, blood was drawn by cardiac puncture followed by tissue collection. Plasma was obtained from whole blood by centrifugation (5 min, 5,000 rpm, 4 °C) and tissues were weighed and homogenized using a FastPrep®-24 (MP-Biomedicals, NY) in 1% (w/v) bovine serum albumin (Sigma-Aldrich) in water.
NTRC 0066-0 was extracted from in vitro and in vivo samples using liquid–liquid extraction with diethyl ether. Another MPS-1 inhibitor, Compound 5 (Cpd-5), was added to the samples as an internal standard. The dried organic phase was reconstituted in 30% methanol in water (v/v). Samples were measured using an LC-MS/MS system comprising an UltiMate 3000 LC Systems (Dionex, Sunnyvale, CA) and an API 4000 mass spectrometer (Sciex, Framingham, MA). Samples were injected on to a Securityguard C18 pre-column (Phenomenex, Utrecht, The Netherlands) connected to a ZORBAX Extend-C18 column (Agilent, Santa Clara, CA). Elution was done at a flow rate of 0.2 mL/min using a 5 min gradient from 20% to 95% B (mobile phase A was 0.1% HCOOH in water (v/v) and mobile phase B was methanol). 95% B was maintained for 3 min followed by re-equilibration at 20% B. Multiple reaction monitoring parameters were 566.2/391.4 (NTRC0066-0) and 581.6/397.0 (internal standard). Analyst® 1.6.2 software (Sciex) was used for system control and data analysis.

The next series has as its system LN-751. Briefly: Cell survival assay (crystal violet), continuous exposure. Type of series: cell-based, human. The conditions noted are these: LN-751, continuous exposure, Fig. 1A. The protocol: (§1) Wells were pre-coated with poly-ornithine (15 µg/ml for 3 h at room temperature) and subsequently with laminin (7.5 µg/ml for 1 h at 37 °C) prior to seeding GSCs to make them adherent without inducing differentiation. […] Cells were plated in 24-wells plates at low cell densities (2,000–10,000 cells/well) and exposed to different concentrations of NTRC0066-0 24 h later. NTRC0066-0 was dissolved in DMSO (Sigma-Aldrich) for in vitro experiments and final DMSO concentrations never exceeded 0.1%. When untreated wells were confluent (approximately 6–10 days after seeding, dependent on the cell line), cells were fixed and stained using a solution containing 0.5% crystal violet (w/v; Sigma-Aldrich) and 6% glutaraldehyde (v/v; Honeywell, Morris Plains, NJ). Plates were imaged using a Chemi-Doc XRS+ (Bio-rad, Hercules, CA) and analyzed using the Colony Area plugin of ImageJ [24]. IC50 curves were fitted and plotted using the ‘log(inhibitor) vs. normalized response – Variable slope’ fitting procedure of GraphPad Prism v10.3 (GraphPad Software, La Jolla, CA). Monotherapy curves were corrected for untreated controls.

In another series the test system is T98G. The series is described as above. The format is cell-based, human. The conditions noted are these: Fig. 1A. The protocol:
as §1

In another series the test system is LN-428. Described as above. The format is cell-based, human. The conditions noted are these: LN-428, continuous exposure, Fig. 1A. The protocol: as §1
The next series concerns U87. The series is described as above. Type of series: cell-based, human. The conditions noted are these: Fig. 1A. The protocol:
as §1

A further series deals with HS683. The series is described as above. The format is cell-based, human. The conditions noted are these: Fig. 1A. The protocol:
as §1

Another series deals with E98. Described as above. Type of series: cell-based, human. The conditions noted are these: Fig. 1A. The protocol: as §1
A further series concerns MELpT-KNL1. Briefly: MELpT-KNL1 foci in E98 tumors (target inhibition). Type of series: in vivo, mice. The conditions noted are these: last day of 5/10 mg/kg b.i.d.x7d schedule. The protocol:
Mouse heads were fixed in 4% (v/v) formaldehyde and 5% (v/v) glacial acetic acid overnight, and subsequently decalcified in 6.5% (v/v) formic acid at 37 °C for 4 days. Decalcified tissues were paraffin embedded and cut into 4 μm coronal sections that were stained with hematoxylin and eosin (H&E), and for human Vimentin (1:4,000; M0725; DakoCytomation; Glostrup, Denmark), P-gp (1:200; 13978; Cell Signaling Technology; Danvers, MA), BCRP (1:400; ab24115; Abcam; Cambridge, UK), mouse IgG (K4001, Dako) and MELpT-KNL1 (1:50; as described previously). Sections were imaged and processed using an Aperio AT2 system and ImageScope software (v12; both Leica). MELpT-KNL1 foci were imaged using an Axio Observer Z1 system (Carl Zeiss AG; Oberkochen, Germany).

The nature of series [1]: Tolerability of oral dosing schedules in Abcb1a/b;Abcg2-/- mice. The format is in vivo.
Another series deals with GBM cells. Briefly: Incucyte caspase-3/7 apoptosis assay. The format is cell-based, human. The conditions noted are these: three serum-cultured GBM cell lines, increasing concentrations. The protocol: For the apoptosis assay, cells were plated in a 96-wells plate at low cell densities (500–1000 cells/well) and allowed to adhere overnight under standard culture conditions (37 °C, 5% CO₂). After 24 h, cells were exposed to different concentrations of NTRC0066-0. Apoptosis was measured using the Incucyte® Caspase-3/7 Dye for Apoptosis (Sartorius AG, Göttingen, Germany), which was added at a final concentration of 2.5 µM. As a positive control for the induction of Caspase 3/7-mediated apoptosis, cells were treated with a combination of S63845 and navitoclax (final concentrations 3 µM and 1.5 µM, respectively). Apoptotic cell death was assessed in real time with the Incucyte® S3 system (Sartorius AG). The Incucyte® was configured to capture phase-contrast images using a 10x objective lens. Data were collected and analyzed using the Incucyte® S3 software. Fluorescence signal confluence was quantified and normalized to the total phase-contrast confluence in each well to take variations in cell density into account. Curves were plotted using GraphPad Prism v10.3 (GraphPad Software).

pIC50: −log10 of the molar value.

Turning to `CCc1cccc(CC)c1NC(=O)c1ccn2c1CCc1cnc(Nc3ccc(N4CCN(C)CC4)cc3OC)nc1-2` [NTRC 0066-0], in the series with P-gp, the “Brain concentration compared to WT mice” value is on record as “markedly increased”. Besides, the “Brain-plasma ratio compared to WT mice” value with P-gp is “markedly increased”. The “Plasma concentration compared to WT mice” value in the series on P-gp is “similar”. Besides, the pIC50 was 7.43 in the series on LN-751; 7.74 in the series with T98G; 7.41 in the series with LN-428; 7.51 in the series with U87; 7.38 with HS683; 7.64 with E98. In the series with MELpT-KNL1, the “Duration of reduction in MELpT-KNL1 foci in pro-/metaphase cells” value is given as “at least 24 h”. The Tolerability of schedule result in [1] (5 mg/kg p.o. morning + 10 mg/kg p.o. about 8 h later, 7 consecutive days) is on record as “could safely administer”; in series [1] (20 mg/kg p.o. every other day for 11 days (q.2d.x11d)) it was “could safely be given”. The “Induction of apoptosis (caspase 3/7 activation)” value with GBM cells is given as “did not induce apoptosis”.
